Reference: patent US12084436B2, “Heterocyclic compound” (Takeda Pharmaceutical Company Limited, priority 2019, dated 2024)

Target: T1, HDAC6 enzyme (Homo sapiens, UniProt Q9UBN7)
T1 construct: prepared by transducing full length HDAC6 gene into Sf-9 insect cells; GST; purchased SignalChem; host or cells: Sf-9 insect cells
T1 sequence (Q9UBN7 1-1215): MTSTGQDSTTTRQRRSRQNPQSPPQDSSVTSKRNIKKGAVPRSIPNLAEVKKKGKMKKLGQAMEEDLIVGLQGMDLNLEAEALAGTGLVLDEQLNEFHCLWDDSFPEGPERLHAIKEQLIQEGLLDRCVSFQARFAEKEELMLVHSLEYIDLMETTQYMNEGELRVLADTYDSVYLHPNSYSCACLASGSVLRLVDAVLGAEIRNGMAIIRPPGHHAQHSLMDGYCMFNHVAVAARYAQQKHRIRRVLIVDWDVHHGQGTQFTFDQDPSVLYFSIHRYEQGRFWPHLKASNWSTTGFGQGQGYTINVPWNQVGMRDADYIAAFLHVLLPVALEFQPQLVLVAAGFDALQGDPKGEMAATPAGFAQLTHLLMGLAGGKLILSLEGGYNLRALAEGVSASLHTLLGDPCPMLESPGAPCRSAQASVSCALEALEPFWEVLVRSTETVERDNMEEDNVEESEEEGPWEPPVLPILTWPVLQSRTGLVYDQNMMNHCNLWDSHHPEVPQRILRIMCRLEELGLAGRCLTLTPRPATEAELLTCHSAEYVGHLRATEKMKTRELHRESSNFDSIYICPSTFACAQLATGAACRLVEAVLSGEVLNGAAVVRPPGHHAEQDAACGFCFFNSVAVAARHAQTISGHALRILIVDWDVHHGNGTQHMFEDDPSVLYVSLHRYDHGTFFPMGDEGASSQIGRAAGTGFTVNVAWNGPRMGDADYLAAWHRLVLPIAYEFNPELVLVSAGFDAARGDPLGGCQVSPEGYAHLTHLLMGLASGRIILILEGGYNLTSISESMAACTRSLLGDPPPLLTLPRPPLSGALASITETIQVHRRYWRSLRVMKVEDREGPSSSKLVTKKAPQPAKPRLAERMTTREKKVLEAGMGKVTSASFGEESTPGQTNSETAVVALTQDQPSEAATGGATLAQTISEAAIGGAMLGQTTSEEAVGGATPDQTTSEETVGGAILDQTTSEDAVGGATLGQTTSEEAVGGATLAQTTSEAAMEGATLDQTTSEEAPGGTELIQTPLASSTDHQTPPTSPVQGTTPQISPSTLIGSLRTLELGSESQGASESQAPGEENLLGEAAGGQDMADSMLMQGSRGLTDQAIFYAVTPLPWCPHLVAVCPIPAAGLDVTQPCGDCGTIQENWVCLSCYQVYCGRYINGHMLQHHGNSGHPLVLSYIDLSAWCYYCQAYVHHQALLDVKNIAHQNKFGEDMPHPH
Assay: HDAC6 enzyme inhibitory assay (HDAC-Glo I/II Assay kit, luminescence)
Assay type: biochemical
Settings: 10 μM test compound, wells without enzyme = 100% inhibition; for inhibition at 10 µM: read-out: HDAC6 inhibitory rate (%) (10 μM)
Method in brief: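 Full-length human HDAC6, GST-purified from Sf-9 cells, was preincubated with compound for 60 min at room temperature in Tris-HCl pH 7.5 buffer with glutathione and Tween-20. Substrate-developer was then added, and luminescence was read after 20 min at room temperature. Inhibition was expressed relative to no-enzyme wells, taken as 100% inhibition.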

CN1C(=O)c2cc(-c3nnc(C(F)F)o3)ccc2CC1(C)c1ccc(F)cc1 (single isomer, unassigned; isomer 2) [Example 24b, 7-[5-(difluoromethyl)-1,3,4-oxadiazol-2-yl]-3-(4-fluorophenyl)-2,3-dimethyl-3,4-dihydroisoquinolin-1(2H)-one (optical isomer 2)]
HDAC6 inhibitory rate (%) (10 μM) (10 µM): 99%

N#Cc1ccccc1Cn1ccnc1-c1cc(-c2nnc(C(F)F)o2)ccn1 [Example 79a]
inhibition at 10 µM: 99%

CN1C(=O)c2cc(-c3nnc(C(F)F)o3)ccc2OC1(C)C1CCCCC1 (centres unmarked) [Example 14b, 2-cyclohexyl-6-[5-(difluoromethyl)-1,3,4-oxadiazol-2-yl]-2,3-dimethyl-2,3-dihydro-4H-1,3-benzoxazin-4-one]
inhibition at 10 µM: 98%

CN(Cc1ccc(F)cc1)N1Cc2ncc(-c3nnc(C(F)F)o3)cc2C1=O [Example 69c, 3-[5-(difluoromethyl)-1,3,4-oxadiazol-2-yl]-6-{[(4-fluorophenyl)methyl](methyl)amino}-6,7-dihydro-5H-pyrrolo[3,4-b]pyridin-5-one]
inhibition at 10 µM: 100%

O=C1c2cc(-c3nnc(C(F)F)o3)ccc2CN1NCc1ccc(F)cn1 [Example 15c, 6-[5-(difluoromethyl)-1,3,4-oxadiazol-2-yl]-2-{[(5-fluoropyridin-2-yl)methyl]amino}-2,3-dihydro-1H-isoindol-1-one]
inhibition at 10 µM: 99%

CC(C)(C)OC(=O)N(Cc1ccccc1)N1Cc2ccc(-c3nnc(C(F)F)o3)cc2C1=O [Example 4c, tert-butyl benzyl {6-[5-(difluoromethyl)-1,3,4-oxadiazol-2-yl]-1-oxo-1,3-dihydro-2H-isoindol-2-yl}carbamate]
inhibition at 10 µM: 100%

CC(NN1Cc2ccc(-c3nnc(C(F)F)o3)cc2C1=O)c1ccc(F)cc1 (centres unmarked) [Example 22c, 6-[5-(difluoromethyl)-1,3,4-oxadiazol-2-yl]-2-{[1-(4-fluorophenyl)ethyl]amino}-2,3-dihydro-1H-isoindol-1-one]
inhibition at 10 µM: 100%

O=C(Cn1ccnc1-c1cc(F)cc(-c2nnc(C(F)F)o2)c1)N1CCCC1 [Example 33a, 2-(2-{3-[5-(difluoromethyl)-1,3,4-oxadiazol-2-yl]-5-fluorophenyl}-1H-imidazol-1-yl)-1-(pyrrolidin-1-yl)ethan-1-one]
inhibition at 10 µM: 86%

CN(Cc1cncc(Cl)c1)N1Cc2ncc(-c3nnc(C(F)F)o3)cc2C1=O [Example 70c, 6-{[(5-chloropyridin-3-yl)methyl](methyl)amino}-3-[5-(difluoromethyl)-1,3,4-oxadiazol-2-yl]-6,7-dihydro-5H-pyrrolo[3,4-b]pyridin-5-one]
inhibition at 10 µM: 100%

Fc1cccc(Cn2ncnc2-c2cc(-c3nnc(C(F)F)o3)ccn2)c1 [Example 85a, 4-[5-(difluoromethyl)-1,3,4-oxadiazol-2-yl]-2-{1-[(3-fluorophenyl)methyl]-1H-1,2,4-triazol-5-yl}pyridine]
inhibition at 10 µM: 101%

Cc1nc(Cn2ccnc2-c2cc(F)cc(-c3nnc(C(F)F)o3)c2)no1 [Example 55a, 3-[(2-{3-[5-(difluoromethyl)-1,3,4-oxadiazol-2-yl]-5-fluorophenyl}-1H-imidazol-1-yl)methyl]-5-methyl-1,2,4-oxadiazole]
inhibition at 10 µM: 97%

Fc1cc(-c2nnc(C(F)F)o2)cc(-c2nccn2Cc2cnccn2)c1 [Example 43a, 2-[(2-{3-[5-(difluoromethyl)-1,3,4-oxadiazol-2-yl]-5-fluorophenyl}-1H-imidazol-1-yl)methyl]pyrazine]
inhibition at 10 µM: 98%

O=C1c2cc(-c3nnc(C(F)F)o3)cnc2CN1N(Cc1ccc(F)cc1)CC1CCOCC1 [Example 71c, 3-[5-(difluoromethyl)-1,3,4-oxadiazol-2-yl]-6-{[(4-fluorophenyl)methyl][(oxan-4-yl)methyl]amino}-6,7-dihydro-5H-pyrrolo[3,4-b]pyridin-5-one]
inhibition at 10 µM: 100%

CN1C(=O)c2cc(-c3nnc(C(F)F)o3)ccc2OC1c1ccc(F)cc1 (centres unmarked) [Example 44b, 6-[5-(difluoromethyl)-1,3,4-oxadiazol-2-yl]-2-(4-fluorophenyl)-3-methyl-2,3-dihydro-4H-1,3-benzoxazin-4-one]
inhibition at 10 µM: 100%

Fc1cc(-c2nnc(C(F)F)o2)cc(-c2nccn2Cc2ccccn2)c1 [Example 6a]
inhibition at 10 µM: 99%

O=C1c2cc(-c3nnc(C(F)F)o3)cnc2CN1Nc1c(F)c(F)c(F)c(F)c1F [Example 33c, 3-[5-(difluoromethyl)-1,3,4-oxadiazol-2-yl]-6-(pentafluoroanilino)-6,7-dihydro-5H-pyrrolo[3,4-b]pyridin-5-one]
inhibition at 10 µM: 99%

O=C1NN(c2ccc(F)c(Cl)c2)Cc2ccc(-c3nnc(C(F)F)o3)cc21 [Example 31b, 3-(3-chloro-4-fluorophenyl)-7-[5-(difluoromethyl)-1,3,4-oxadiazol-2-yl]-3,4-dihydrophthalazin-1(2H)-one]
inhibition at 10 µM: 100%

O=C(CC(F)(F)F)N(Cc1cnn(C2CC2)c1)N1Cc2ccc(-c3nnc(C(F)F)o3)cc2C1=O [Example 12c, N-[(1-cyclopropyl-1H-pyrazol-4-yl)methyl]-N-{6-[5-(difluoromethyl)-1,3,4-oxadiazol-2-yl]-1-oxo-1,3-dihydro-2H-isoindol-2-yl}-3,3,3-trifluoropropanamide]
inhibition at 10 µM: 98%

Cc1nnc(Cn2ccnc2-c2cc(F)cc(-c3nnc(C(F)F)o3)c2)o1 [Example 54a, 2-(difluoromethyl)-5-(3-fluoro-5-{1-[(5-methyl-1,3,4-oxadiazol-2-yl)methyl]-1H-imidazol-2-yl}phenyl)-1,3,4-oxadiazole]
inhibition at 10 µM: 89%

N#Cc1cccc(Cn2ccnc2-c2cc(-c3nnc(C(F)F)o3)ccn2)c1 [Example 72a, 3-[(2-{4-[5-(difluoromethyl)-1,3,4-oxadiazol-2-yl]pyridin-2-yl}-1H-imidazol-1-yl)methyl]benzonitrile]
inhibition at 10 µM: 100%

N#Cc1cc(Cn2ccnc2-c2cc(-c3nnc(C(F)F)o3)ccn2)ccc1F [Example 1a, 5-[(2-{4-[5-(difluoromethyl)-1,3,4-oxadiazol-2-yl]pyridin-2-yl}-1H-imidazol-1-yl)methyl]-2-fluorobenzonitrile]
inhibition at 10 µM: 100%

O=C1c2cc(-c3nnc(C(F)F)o3)ccc2OCN1Cc1ccccc1 [Example 5b, 3-benzyl-6-[5-(difluoromethyl)-1,3,4-oxadiazol-2-yl]-2,3-dihydro-4H-1,3-benzoxazin-4-one]
inhibition at 10 µM: 71%

O=C1OCC(Cc2ccccn2)N1c1cc(F)cc(-c2nnc(C(F)F)o2)c1 (centres unmarked) [Example 41a, 3-{3-[5-(difluoromethyl)-1,3,4-oxadiazol-2-yl)-5-fluorophenyl}-4-[(pyridin-2-yl)methyl]-1,3-oxazolidin-2-one]
inhibition at 10 µM: 21%

CN1C(=O)c2cc(-c3nnc(C(F)F)o3)ccc2OC1(C)c1ccc(OC(F)(F)F)cc1 (centres unmarked) [Example 21b, 6-[5-(difluoromethyl)-1,3,4-oxadiazol-2-yl]-2,3-dimethyl-2-[4-(trifluoromethoxy)phenyl]-2,3-dihydro-4H-1,3-benzoxazin-4-one]
inhibition at 10 µM: 99%

COCCn1ccnc1-c1cc(F)cc(-c2nnc(C(F)F)o2)c1 [Example 27a]
inhibition at 10 µM: 95%

Fc1cccc(Cc2ccnn2-c2cc(-c3nnc(C(F)F)o3)ccn2)c1 [Example 87a, 4-[5-(difluoromethyl)-1,3,4-oxadiazol-2-yl]-2-{5-[(3-fluorophenyl)methyl]-1H-pyrazol-1-yl}pyridine]
inhibition at 10 µM: 99%
